Laboratory results: patent US12059398B2, “Compositions of 1,3-butanediol and beta-hydroxybutyric acid to provide optimal therapeutic ketosis” (Health Via Modern Nutrition Inc., priority 2022, dated 2024)

What was measured:
[1] = test system: potassium channels and nitric oxide synthase; conditions: cited from earlier work
[2] = Blood D-BHB pharmacokinetics comparison of ketogenic nutritional compositions after ingestion; assay type: in vivo; conditions: for Blood D-BHB: dose 0.5 g (total BDO or BHB)/bodyweight kg, ingestion
Description: FIG. 1 is a graph showing the blood D-BHB pharmacokinetics for eight ketogenic compositions, reporting blood D-BHB mM over a time period of six hours following ingestion of the ketogenic compositions.
The blood D-BHB pharmacokinetics produced by different ketogenic nutritional compositions were evaluated and compared. The nutritional compositions include: 100% R-BDO; 90 wt. % R-BDO+10 wt. % D-BHB (acid/salt); 85 wt. % R-BDO+15 wt. % D-BHB (acid/salt); 80 wt. % R-BDO+20 wt. % D-BHB (acid/salt); 75 wt. % R-BDO+25 wt. % D-BHB (acid/salt); 70 wt. % BDO+30 wt. % D-BHB; 60 wt. % BDO+40 wt. % D-BHB; and 50% BDO+50% D-BHB via R-1,3 BDO−D-BHB monoester. The compositions were administered at a dose of 0.5 g (total BDO or BHB excluding mineral or base pairs)/bodyweight kg.
The nutritional compositions include: 100% R-BDO; 90 wt. % R-BDO+10 wt. % D-BHB (acid/salt); 85 wt. % R-BDO+15 wt. % D-BHB (acid/salt); 80 wt. % R-BDO+20 wt. % D-BHB (acid/salt); 75 wt. % R-BDO+25 wt. % D-BHB (acid/salt); 70 wt. % BDO+30 wt. % D-BHB; 60 wt. % BDO+40 wt. % D-BHB; and 50% BDO+50% D-BHB via R-1,3 BDO−D-BHB monoester.
By integrating over time rather than looking at individual concentration measurements, a more accurate estimate of the overall exposure to the drug is obtained.

[3] = dose 0.5 g/bodyweight kg, six hours following ingestion

Row | Compound | Effect on age-associated endothelial-dependent and -independent dysfunction ([1]; not associated with increased blood BHB concentration) | Direct vasodilator mechanism ([1]; through activation of potassium channels and nitric oxide synthase) | Blood D-BHB ([2]; 0 minutes) [mM] | Blood D-BHB ([2]; 60 minutes) [mM] | Blood D-BHB ([2]; 120 minutes) [mM] | Blood D-BHB ([2]; 180 minutes) [mM] | Blood D-BHB ([2]; 240 minutes) [mM] | Blood D-BHB ([2]; 300 minutes) [mM] | Blood D-BHB ([2]; 360 minutes) [mM] | Duration of Blood D-BHB Concentrations between 1 mM and 2.5 mM [2, 3] [min] | Total AUC mM × minutes in optimal therapeutic ketosis range of 1-2.5 mM [2, 3] [mM·min]
1 | C[C@@H](O)CCO [100% R-1,3-BDO (natural), R-1,3-butanediol] | sufficient to reverse age-associated endothelial-dependent and -independent dysfunction | predominantly an endothelium-dependent vasodilator | – | – | – | – | – | – | – | – | –
2 | R-1,3 BDO−D-BHB monoester | – | – | 0.3 | 4.3 | 1.9 | 1.3 | 0.5 | 0.3 | 0.2 | 158 | 98.3
